The subject of data set [1] is Escherichia coli. In words: Inhibition of swarming motility of Escherichia coli clinical isolates incubated for 16 to 20 hrs. The format is functional.
Data set [2] concerns Salmonella enterica. In words: Inhibition of swarming motility of Salmonella enterica clinical isolates incubated for 16 to 20 hrs. The data set is classed as functional.
Data set [3] concerns Pseudomonas aeruginosa. In words: Inhibition of swarming motility of Pseudomonas aeruginosa clinical isolates incubated for 16 to 20 hrs. The data set is classed as functional.
The subject of data set [4] is Escherichia coli. In words: Antibiofilm activity against Escherichia coli UTI89 incubated for 2 days at 23 degC followed by 1 day incubation at RT. The format is functional.
Data set [5] deals with Escherichia coli. Put plainly: Inhibition of swarming motility of Escherichia coli PY31 at 16 ug/mL incubated for 16 to 20 hrs relative to control. The data set is classed as functional.
Data set [6] has as its system Burkholderia cepacia. Put plainly: Inhibition of swarming motility of Burkholderia cepacia clinical isolates incubated for 16 to 20 hrs. The data set is classed as functional.
Data set [7] deals with Pseudomonas aeruginosa. Put plainly: Inhibition of swarming motility of Pseudomonas aeruginosa HONKR at 16 ug/mL incubated for 16 to 20 hrs relative to control. The data set is classed as functional.
The subject of data set [8] is Pseudomonas aeruginosa. Put plainly: Inhibition of swarming motility of Pseudomonas aeruginosa HONKR at 10 ug incubated for 18 to 24 hrs. The format is functional, organism-based.
Data set [9] deals with Pseudomonas aeruginosa. In words: Potentiation of tobramycin-induced inhibition of swarming motility in Pseudomonas aeruginosa HONKR assessed as reduction in biofilm formation at 0.125 ug/mL. The data set is classed as functional, organism-based.
The test system of data set [10] is Xanthomonas campestris. In words: Inhibition of swarming motility of Xanthomonas campestris incubated for 16 to 20 hrs. The format is functional.
In data set [11] the test system is Pseudomonas aeruginosa. Put plainly: Potentiation of colistin-induced inhibition of swarming motility in Pseudomonas aeruginosa HONKR assessed as reduction in biofilm formation at 0.125 ug/mL. The format is functional, organism-based.
In data set [12] the test system is Pseudomonas aeruginosa. In words: Downregulation of pilX gene expression in Pseudomonas aeruginosa by lacZ reporter gene based beta-galactosidase assay. The data set is classed as functional, organism-based. (A reporter such as luciferase makes a cellular process visible.)
For data set [13], the system named is Pseudomonas syringae. In words: Inhibition of swarming motility of Pseudomonas syringae incubated for 16 to 20 hrs. The format is functional.
The test system of data set [14] is M14. Put plainly: Cytotoxicity against human M14 cells assessed as reduction in cell viability at < 10 uM. The data set is classed as cell-based.
Data set [15] has as its system Pseudomonas aeruginosa. Put plainly: Down regulation of pilY1 expression in swarm plate cultured Pseudomonas aeruginosa PAO1 incubated for 19 to 24 hrs by Western blot analysis. The format is functional, organism-based.
Data set [16] concerns Pectobacterium atrosepticum. In words: Inhibition of swarming motility of Pectobacterium atrosepticum incubated for 16 to 20 hrs. The format is functional.
Data set [17] concerns Pseudomonas aeruginosa. In words: Down regulation of pilA expression in swarm plate cultured Pseudomonas aeruginosa PAO1 incubated for 19 to 24 hrs by Western blot analysis. The data set is classed as functional, organism-based. Background: Immunoblotting shows a protein as a band on a membrane.

Calls of active or inactive are those of the source. No cut-off for these calls is given here.

The results in this text go back to ChEMBL document CHEMBL4627274, “Optimized plant compound with potent anti-biofilm activity across gram-negative species” (Bioorg Med Chem, 2020).

By inhibition is commonly meant the percentage by which the read-out fell short of the control.

For `Cn1cc2c(n1)C(C)(C)[C@@H]1CC[C@]3(C)[C@H](CC=C4[C@@H]5CC(C)(C)CC[C@]5(C(=O)O)CC[C@]43C)[C@@]1(C)C2`, the INH in data set [1] is greater than 16 µg/mL; in data set [2] it was greater than 16 µg/mL; in [3] it was 16 µg/mL; in [6], 1 µg/mL. In [4], the MBIC50 turned out to be 8 µg/mL. Further, the results for the inhibition at 16 µg/mL in [5] and in data set [7] were 80% and greater than 90%, respectively.
As to `CC1(C)CC[C@]2(C(=O)O)CC[C@]3(C)C(=CC[C@@H]4[C@@]5(C)CC[C@H](O)C(C)(C)[C@@H]5CC[C@]43C)[C@@H]2C1` [OLEANOLIC_ACID], the INH in [1] was 16 µg/mL; in [2] it was greater than 64 µg/mL; in [3], 8 µg/mL; in [6] it was 0.5 µg/mL. Also, in data set [4], the MBIC50 entry is reported as “>=32 ug ml-1”. For the same compound, the inhibition at 16 µg/mL in [5] was 80%; in data set [7] it was greater than 90%.
For COLISTIN, in data set [8], the inhibition result was “inactive”.
On to `CC1(C)CC[C@]2(C(=O)O)CC[C@]3(C)C(=CC[C@@H]4[C@@]5(C)Cc6c(n[nH]c6N)C(C)(C)[C@@H]5CC[C@]43C)[C@@H]2C1`, for which the result in data set [9], in [11] and in [12] was Active. Besides, the INH in [10] was less than 0.5 µg/mL; in data set [1], 1 µg/mL; in data set [13], less than 0.5 µg/mL; in data set [16], less than 0.5 µg/mL; in data set [2], 1 µg/mL; in data set [3], 1 µg/mL. The compound further returned an INH in data set [6] of 0.25 µg/mL. Further, the Activity result was “Non-Toxic” in [14], “Dose-dependent effect” in data set [15] and “Dose-dependent effect” in data set [17]. The compound also came in with an MBIC50 in data set [4] of 4 µg/mL. Besides, the inhibition at 16 µg/mL in data set [5] and in [7] was greater than 90% each time.
Regarding `CC1(C)CC[C@]2(C(=O)O)CC[C@]3(C)C(=CC[C@@H]4[C@@]5(C)Cc6cn[nH]c6C(C)(C)[C@@H]5CC[C@]43C)[C@@H]2C1`, the INH is greater than 16 µg/mL in [1], 16 µg/mL in data set [2], 2 µg/mL in data set [3] and 0.5 µg/mL in data set [6]. Moreover, the MBIC50 in [4] was found to be 4 µg/mL. The inhibition at 16 µg/mL in data set [5] and in [7] was greater than 90% each time.
As for `NC[C@H]1O[C@H](O[C@H]2[C@H](O)[C@@H](O[C@H]3O[C@H](CO)[C@@H](O)[C@H](N)[C@H]3O)[C@H](N)C[C@@H]2N)[C@H](N)C[C@@H]1O` [TOBRAMYCIN], the INH is 16 µg/mL in [1], 8 µg/mL in [2], 4 µg/mL in data set [3] and greater than 64 µg/mL in data set [6]. In addition, in data set [8], the inhibition result is “inactive”.
